One may read the IC50 as the concentration that inhibits the measured activity by half. For orientation: inhibition means the change of the read-out against control, counted positive when it falls.

Activity calls are given as the source filed them. The calls are words filed in the database; no cut-off is given here.

Data set [1] has as its system RAW264.7. Put plainly: Antiinflammatory activity in mouse RAW264.7 cells assessed as inhibition of LPS-induced TNF-alpha secretion after 18 hrs by sandwich ELISA. Type of data set: functional, cell-based. The following applies: RAW264.7, 18 h. (In general: ELISA stands for enzyme-linked immunosorbent assay.)
Data set [2] deals with RAW264.7. Briefly: Antiinflammatory activity in mouse RAW264.7 cells assessed as inhibition of LPS-induced nitric oxide production after 18 hrs by griess reaction analysis. In kind it is functional, cell-based. The following applies: RAW264.7, 18 h. For orientation: Nitrite, measured by Griess reagent, commonly stands in for NO production.
Data set [3] relates to RAW264.7. Briefly: Antiinflammatory activity in mouse RAW264.7 cells assessed as inhibition of LPS-induced nitric oxide production at 0.4 uM after 18 hrs by griess reaction analysis. In kind it is functional, cell-based.
Data set [4] concerns the target T1, Bifunctional epoxide hydrolase 2 (Homo sapiens, UniProt P34913).
T1 sequence (P34913 whole entry): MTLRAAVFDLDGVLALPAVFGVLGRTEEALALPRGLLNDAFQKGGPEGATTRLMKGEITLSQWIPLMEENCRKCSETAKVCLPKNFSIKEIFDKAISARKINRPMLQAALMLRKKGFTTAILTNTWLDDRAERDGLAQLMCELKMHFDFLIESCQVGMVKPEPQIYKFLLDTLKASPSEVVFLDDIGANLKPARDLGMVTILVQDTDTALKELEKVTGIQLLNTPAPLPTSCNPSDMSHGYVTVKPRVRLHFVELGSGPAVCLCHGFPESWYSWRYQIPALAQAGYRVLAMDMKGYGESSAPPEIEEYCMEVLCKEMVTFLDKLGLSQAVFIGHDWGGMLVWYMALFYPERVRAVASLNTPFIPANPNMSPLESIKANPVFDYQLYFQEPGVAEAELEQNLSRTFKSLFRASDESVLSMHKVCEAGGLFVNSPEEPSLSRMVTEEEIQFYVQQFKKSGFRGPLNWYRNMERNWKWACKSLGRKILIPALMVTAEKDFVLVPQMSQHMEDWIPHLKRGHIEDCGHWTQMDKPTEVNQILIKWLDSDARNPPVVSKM
Put plainly: Inhibition of sEH (unknown origin) assessed as substrate PHOME hydrolysis after 1 hr by fluorescence method.

Data set [5] has as its system RAW264.7. Briefly: Antiinflammatory activity in mouse RAW264.7 cells assessed as inhibition of LPS-induced TNF-alpha secretion at 0.4 uM after 18 hrs by sandwich ELISA. Type of data set: functional, cell-based.
For data set [6], the system named is RAW264.7. Put plainly: Antiinflammatory activity in mouse RAW264.7 cells assessed as inhibition of LPS-induced nitric oxide production at 10 uM after 18 hrs by griess reaction analysis. Type of data set: functional.
The subject of data set [7] is RAW264.7. Briefly: Cytotoxicity against mouse RAW264.7 cells assessed as cell viability at 50 uM after 18 hrs by MTT assay in presence of LPS. In kind it is cell-based. The following applies: raw264.7, 18 h. (In general: Tetrazolium assays rely on reduction of a dye to a coloured formazan, in cell work by metabolically active cells.)
For data set [8], the system named is RAW264.7. Briefly: Antiinflammatory activity in mouse RAW264.7 cells assessed as inhibition of LPS-induced TNF-alpha secretion at 10 uM after 18 hrs by sandwich ELISA. Type of data set: functional.
For data set [9], the target named is T2, Bifunctional epoxide hydrolase 2 (Homo sapiens) (UniProt P34913).
T2 sequence (whole entry): T1 sequence (P34913 whole entry)
Put plainly: Inhibition of sEH (unknown origin) assessed as substrate PHOME hydrolysis at 25 uM after 1 hr by fluorescence method.

As for `O=c1oc2c(O)c(O)cc3c(=O)oc4c(O)c(O)cc1c4c23` [ELLAGIC ACID], the IC50 is more than 50 µM in the data set with RAW264.7 [1], 35.7 µM in the data set with RAW264.7 [2] and 20.7 µM in data set [4]. The inhibition entry in the data set with RAW264.7 [3], in the data set with RAW264.7 [5] and with RAW264.7 [6] was “inactive” throughout. Moreover, the Activity result with RAW264.7 [7] is listed as “Non-toxic”. Besides, the inhibition result in the data set on RAW264.7 [8] was “Active”. In data set [9], the inhibition was more than 40%.
In the case of `O=c1c(O[C@@H]2O[C@H](CO)[C@@H](O)[C@H](O)[C@H]2O)c(-c2ccc(O)cc2)oc2cc(O)cc(O)c12` [ASTRAGALIN], the IC50 is 40.6 µM in the data set on RAW264.7 [1], 37.1 µM in the data set on RAW264.7 [2] and more than 50 µM in data set [4]. Moreover, the inhibition entry in the data set with RAW264.7 [3], in the data set on RAW264.7 [5] and in the data set with RAW264.7 [6] was “inactive” in each case. Further, the Activity entry in the data set with RAW264.7 [7] is “Non-toxic”. Besides, the inhibition result in the data set on RAW264.7 [8] was “Active”. Further, the inhibition in data set [9] was more than 40%.
On to `O=C(OC[C@H]1O[C@@H](OC(=O)c2cc(O)c(O)c(O)c2)[C@H](O)[C@@H](OC(=O)c2cc(O)c(O)c(O)c2)[C@@H]1OC(=O)c1cc(O)c(O)c(O)c1)c1cc(O)c(O)c(O)c1`, for which the IC50 in the data set with RAW264.7 [1] is 22.6 µM; in the data set with RAW264.7 [2], more than 50 µM; in [4] it was 36.1 µM. Also, the inhibition result in the data set on RAW264.7 [3], in the data set with RAW264.7 [5] and in the data set on RAW264.7 [6] was “inactive” in each case. In addition, in the data set with RAW264.7 [7], the Activity result is listed as “Non-toxic”. The inhibition entry in the data set with RAW264.7 [8] is “Active”. In data set [9], the inhibition is more than 40%.
On to `O=c1c(O)c(-c2ccc(O)c(O)c2)oc2cc(O)cc(O)c12` [QUERCETIN], for which the IC50 is more than 50 µM in the data set on RAW264.7 [2] and 33.5 µM in [4]. Further, the inhibition result in the data set with RAW264.7 [3], with RAW264.7 [5] and with RAW264.7 [6] was “inactive” throughout. Further, the Activity entry in the data set on RAW264.7 [7] is on record as “Non-toxic”. Moreover, the inhibition result with RAW264.7 [8] was “Active”. The inhibition in [9] is more than 40%.
Take `O=c1c(O[C@@H]2O[C@H](CO)[C@H](O)[C@H](O)[C@H]2O)c(-c2ccc(O)c(O)c2)oc2cc(O)cc(O)c12` [HYPEROSIDE]: the IC50 with RAW264.7 [1] was more than 50 µM; with RAW264.7 [2], 48.8 µM; in data set [4] it was 21.8 µM. For the same compound, the inhibition entry in the data set with RAW264.7 [3], in the data set on RAW264.7 [5] and with RAW264.7 [6] was “inactive” throughout. In addition, the Activity entry with RAW264.7 [7] was “Non-toxic”. Also, the inhibition result in the data set with RAW264.7 [8] is “Active”. For the same compound, the inhibition in data set [9] was more than 40%.
For the compound `COC(=O)[C@H]1CC(=O)c2oc(=O)c3cc(O)c(O)c(O)c3c21`, the IC50 is 21.2 µM in the data set on RAW264.7 [1], 23.8 µM in the data set on RAW264.7 [2] and more than 50 µM in data set [4]. The inhibition entry in the data set on RAW264.7 [3] and with RAW264.7 [5] was “inactive” throughout. For the same compound, the inhibition entry in the data set on RAW264.7 [6] and with RAW264.7 [8] was “Active” each time. Moreover, the Activity entry with RAW264.7 [7] is “Non-toxic”. Also, the inhibition in data set [9] was more than 40%.
Consider `C[C@@H]1O[C@@H](OC[C@H]2O[C@@H](Oc3c(-c4ccc(O)c(O)c4)oc4cc(O)cc(O)c4c3=O)[C@H](O)[C@@H](O)[C@@H]2O)[C@H](O)[C@H](O)[C@H]1O` [RUTIN], for which the IC50 was determined as 44.5 µM with RAW264.7 [1], 27.5 µM in the data set on RAW264.7 [2] and 24.3 µM in data set [4]. In addition, the inhibition result in the data set with RAW264.7 [3] and in the data set on RAW264.7 [5] was “inactive” in each case. The inhibition result in the data set with RAW264.7 [6] and in the data set with RAW264.7 [8] was “Active” each time. In the data set with RAW264.7 [7], the Activity entry is “Non-toxic”. Further, the inhibition in [9] was more than 40%.
On to `O=C1C[C@H](C(=O)O)c2c1oc(=O)c1cc(O)c(O)c(O)c21`, for which the results for the IC50 (in the data set with RAW264.7 [1]; with RAW264.7 [2]; in data set [4]) were 21.3 µM, 41.2 µM and 47.4 µM, respectively. Besides, the inhibition result in the data set with RAW264.7 [3], with RAW264.7 [5] and with RAW264.7 [6] was “inactive” throughout. Besides, the Activity result in the data set on RAW264.7 [7] is “Non-toxic”. Further, the inhibition result in the data set on RAW264.7 [8] is “Active”. Besides, the inhibition in [9] is more than 40%.

These data come from ChEMBL document CHEMBL3232869, “Anti-inflammatory components of Euphorbia humifusa Willd” (Bioorg Med Chem Lett, 2014).
